In patent publication US12172959B2, “Mono- or di-substituted indole derivatives as dengue viral replication inhibitors” (priority 2015, dated 2024):

Key:
in vitro = format: cell-based; conditions: African green monkey, CC50
Protocol: (§1) The antiviral activity of the compounds of the invention was tested against DENV-1 strain TC974#666 (NCPV; Table 6), DENV-2 strain 16681 (Table 7), DENV-3 strain H87 (NCPV; Table 8) and DENV-4 strains H241 (NCPV; Table 9A) and SG/06K2270DK1/2005 (Eden; Table 9B) in a RT-qPCR assay. Therefore, Vero cells were infected with either DENV-1, or -2, or -3, or -4 in the presence or absence of test compounds. At day 3 post-infection, the cells were lysed and cell lysates were used to prepare cDNA of both a viral target (the 3′UTR of DENV; Table 2) and a cellular reference gene (β-actin, Table 2). Subsequently, a duplex real time PCR was performed on a Lightcycler480 instrument. The generated Cp value is inversely proportional to the amount of RNA expression of these targets. Inhibition of DENV replication by test compound results in a shift of Cp's for the 3′UTR gene. On the other hand, if a test compound is toxic to the cells, a similar effect on β-actin expression will be observed. The comparative ΔΔCp method is used to calculate EC50, which is based on the relative gene expression of the target gene (3′UTR) normalized with the cellular housekeeping gene (β-actin).
(§2) The culture medium consisted of minimal essential medium supplemented with 2% of heat-inactivated fetal calf serum, 0.04% gentamycin (50 mg/mL) and 2 mM of L-glutamine. Vero cells, obtained from ECACC, were suspended in culture medium and 75 μL/well was added in 96-well plates (10000 cells/well), which already contain the antiviral compounds. […] In addition, each plate contains wells which are assigned as virus controls (containing cells and virus in the absence of compound) and cell controls (containing cells in the absence of virus and compound). Once the cells were added in the plates, the plates were incubated in a fully humidified incubator (37° C., 5% CO2) until the next day. Dengue viruses serotype-1, 2, 3 and 4 were diluted in order to obtain a Cp of ˜22-24 in the assay. Therefore, 25 μL of virus suspension was added to all the wells containing test compound and to the wells assigned as virus control. In parallel, 25 μL of culture medium was added to the cell controls. Next, the plates were incubated for 3 days in a fully humidified incubator (37° C., 5% CO2). After 3 days, the supernatant was removed from the wells and the cells were washed twice with ice-cold PBS (˜100 μL). The cell pellets within the 96-well plates were stored at −80° C. for at least 1 day. Next, RNA was extracted using the Cells-to-CT™ lysis kit, according to the manufacturer's guideline (Life Technologies). The cell lysates can be stored at −80° C. or immediately used in the reverse transcription step.
(§3) Using the LightCycler software and an in-house LIMS system, dose response curves for each compound were calculated and the half maximal effective concentration (EC50) and the half maximal cytotoxic concentration (CC50) were determined.

DENV-2 16681 strain = experiment: DENV-2 antiviral assay (eGFP fluorescence, Vero cells); format: cell-based, Dengue virus; conditions: DENV-2 16681 eGFP, MOI 0.5, 3 days
Method in brief: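 eGFP-labelled DENV-2 16681 infected Vero cells (2500/well, MEM + 2% FCS) at MOI 0.5, one day after seeding onto 9-step 5-fold compound dilutions. After 3 days at 37 °C, eGFP fluorescence read at 488 nm; % inhibition normalised to virus and cell controls, EC50 by linear interpolation.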

[1] = system: DENV-4 strain SG/06K2270DK1/2005 (Eden); experiment: Tetravalent RT-qPCR assay Protocol A, serotype 4 EDEN; format: cell-based; conditions: Dengue virus, DENV4, Vero, 72 h
Protocol: as §1, §2
(§4) In preparation of the reverse transcription step, mix A (table 3A) was prepared and 7.57 μL/well was dispensed in a 96-well plate. After addition of 5 μL of the cell lysates, a five minute denaturation step at 75° C. was performed (table 3B). Afterwards, 7.43 μL of mix B was added (table 3C) and the reverse transcription step was initiated (table 3D) to generate cDNA.
(§5) Finally, a RT-qPCR mix was prepared, mix C (table 4A), and 22.02 μL/well was dispensed in 96-well LightCycler qPCR plates to which 3 μL of cDNA was added and the qPCR was performed according to the conditions in table 4B on a LightCycler 480.
as §3

DENV-4 strain H241 = experiment: Tetravalent RT-qPCR assay Protocol A, serotype 4 H241; format: cell-based; conditions: Dengue virus, DENV4, 72 h; Protocol A, RT-qPCR serotype 4 H241, Vero cells, day 3; read-out: EC50
Protocol: as §1, §2, §4, §5, §3

DENV-3 strain H87 = experiment: Tetravalent RT-qPCR assay Protocol A, serotype 3; format: cell-based; conditions: Dengue virus, DENV3, 72 h, RT-qPCR serotype 3 H87, Vero cells, day 3
Protocol: as §1, §2, §4, §5, §3

Structure (SMILES) | CC50 at 3 days (in vitro) [nM] | EC50 (DENV-2 16681 strain) [nM] | EC50 [1] [nM] | EC50 (DENV-4 strain H241) [nM] | EC50 (DENV-3 strain H87) [nM]
COc1cc(NC(C(=O)c2c[nH]c3c(C)c(OC)ccc23)c2ccc(Cl)cc2OC)cc(S(C)(=O)=O)c1 (single isomer, unassigned) [Compound 6A, 2-(4-chloro-2-methoxyphenyl)-2-((3-methoxy-5-(methyl-sulfonyl)phenyl)amino)-1-(6-methoxy-7-methyl-1H-indol-3-yl)ethanone] | > 10000 | 0.068 | 0.42 | 95 | 19
COc1cc(NC(C(=O)c2c[nH]c3c(C)c(F)ccc23)c2ccc(Cl)cc2OC)cc(S(C)(=O)=O)c1 (single isomer, unassigned) [Compound 2A, 2-(4-chloro-2-methoxyphenyl)-1-(6-fluoro-7-methyl-1H-indol-3-yl)-2-((3-methoxy-5-(methylsulfonyl)phenyl)amino)ethanone] | 5300 | 0.26 | 1.3 | 83 | 19
COc1cc(NC(C(=O)c2c[nH]c3cc(OC)c(C)cc23)c2ccc(Cl)cc2OC)cc(S(C)(=O)=O)c1 (single isomer, unassigned) [Compound 4A, 2-(4-chloro-2-methoxyphenyl)-2-((3-methoxy-5-(methyl-sulfonyl)phenyl)amino)-1-(6-methoxy-5-methyl-1H-indol-3-yl)ethanone] |  | 0.27 | 0.55 | 53 | 15
COc1cc(NC(C(=O)c2c[nH]c3cc(F)ccc23)c2ccc(Cl)cc2OC)cc(S(C)(=O)=O)c1 (single isomer, unassigned) [Compound 1A, 2-(4-chloro-2-methoxyphenyl)-1-(6-fluoro-1H-indol-3-yl)-2-((3-methoxy-5-(methylsulfonyl)phenyl)amino)ethanone] | 5000 | 0.26 | 2.4 | 93 | 23
COc1cc(NC(C(=O)c2c[nH]c3cc(OC)c(F)cc23)c2ccc(Cl)cc2OC)cc(S(C)(=O)=O)c1 (single isomer, unassigned) [Compound 5A, 2-(4-chloro-2-methoxyphenyl)-1-(5-fluoro-6-methoxy-1H-indol-3-yl)-2-((3-methoxy-5-(methylsulfonyl)phenyl)amino)ethanone] | 5200 | 0.41 | 2.9 | 100 | 53
